Source: paper PMC6539525, “Design, Synthesis, and Mechanism of Dihydroartemisinin–Coumarin Hybrids as Potential Anti-Neuroinflammatory Agents” (Molecules, 2019)
Where two headings read alike, the source gives them in different places.

Tests used:
[1] = MTT cytotoxicity in N9 cells; format: cell-based, murine; conditions: mouse, N9 microglial cells, cytotoxic activity
Method in brief: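 N9 microglial cells seeded at 1.5–3 × 10^4 cells/mL, grown 24 h, then exposed to compounds at 6.25–100 μM in triplicate for 96 h. Viability by MTT (4 h), formazan dissolved in DMSO, absorbance at 570 nm; MTT-IC20 derived.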

[2] = tested on: MDA-MB-231 cells; experiment: MTT cytotoxicity in MDA-MB-231 cells; format: cell-based; conditions: Homo sapiens
Method in brief: (§1)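 Standard MTT assay: cells seeded 24 h, treated with compounds at 6.25–100 μM in triplicate, then grown for 96 h total. Run under normoxia (air throughout) or hypoxia (95% N2 for 24 h, then 72 h normoxia). MTT added for 4 h, formazan dissolved in DMSO, absorbance read at 570 nm.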

[3] = tested on: A549 cells; experiment: MTT cytotoxicity in A549 cells; format: cell-based; conditions: Homo sapiens
Method in brief: as §1

[4] = tested on: HCT-116 cells; experiment: MTT cytotoxicity in HCT-116 cells; format: cell-based; conditions: Homo sapiens
Method in brief: as §1

[5] = tested on: HT-29 cells; experiment: MTT cytotoxicity in HT-29 cells; format: cell-based, Human; conditions: for IC50: Homo sapiens, MTT
[6] = tested on: IL-6 release of LPS-induced N9 cells; experiment: IL-6 release of LPS-induced N9 cells (cytokine kit); format: cell-based, murine; conditions: compound 1 μM, LPS 1 μg/mL, 48 h
Procedure: (§2) N9 cells, which were in the logarithmic phase, were incubated for 24 h by adherent culture. Subsequently, the medium was changed to new one without serum. The cells were treated with different concentration of tested compounds. After specific time in the LPS condition, the supernatants were collected and analyzed.
(§3) The secreted level of TNF-α and IL-6 was measured using mouse Th1/Th2/Th17 Cytokine Kit, purchased from BD Pharningen. The data was analyzed by FCAP Array v3.0. IL-2, IL-4, IL-10, IL-17A, and IFN-γ were not detected in the experiment.

[7] = tested on: TNF-α release of LPS-induced N9 cells; experiment: TNF-α release of LPS-induced N9 cells (cytokine kit); format: cell-based, murine; conditions: compound 1 μM, LPS 1 μg/mL, 48 h
Procedure: as §2, §3

[8] = tested on: NO release of LPS-induced microglial N9 cells; experiment: Inhibition of NO release in LPS-induced N9 cells (Griess); format: cell-based, murine; conditions: Mus musculus, 1 μg/mL LPS for 48 h, NO level in medium
Method in brief: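 Log-phase N9 microglia were grown adherent for 24 h, switched to serum-free medium, then given test compounds under LPS stimulation. Nitrite in supernatant was quantified by Griess reaction at 540 nm; MTT-IC20 was determined to exclude cytotoxic effects.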

[9] = NO capture analysis with sodium nitroprusside (Griess); conditions: 0.01-10 μM compound, 0.5 mM SNP solution, 1 h, room temperature
Procedure: Sodium nitroprusside (SNP) is a NO donor. In this experiment, the reason of the DCH reducing NO level was preliminary explored. […] That means the main reason of the NO level reduction is due to species-specific effect.
SNP was dissolved in PBS to prepare the 100 mM stock solution. In this experiment, SNP solution of […] was added to 975 μL PBS solution which included different concentration of tested compounds. After 60 min under r.t. condition, the concentration of NO2^− was tested using Griess assay.
6l (0.01 μM, 0.1 μM, 1 μM, and 10 μM) or 5n (0.01 μM, 0.1 μM, 1 μM, and 10 μM) was added to a concentration of 0.5 mM SNP solution. […] Data were shown as mean ± SD. *** p < 0.001 compared with control group.

Structure (SMILES): Cc1ccc2c(OCc3cn(CCO[C@H]4O[C@@H]5O[C@@]6(C)CC[C@H]7[C@H](C)CC[C@@H]([C@H]4C)[C@@]57OO6)nn3)cc(=O)oc2c1C [5n]
- IC20 [1]: 2.44 µM
- IC50 ([2]; MDA-MB-231, hypoxia 24 h then normoxia 72 h, read-out: IC50 MDA-MB-231 Hypoxia): 11.7 µM
- IC50 ([2]; MDA-MB-231, normoxia 96 h, read-out: IC50 MDA-MB-231 Normoxia): 11 µM
- IC50 ([3]; A549, hypoxia 24 h then normoxia 72 h, read-out: IC50 A549 Hypoxia): 2.44 µM
- IC50 ([3]; A549, normoxia 96 h, read-out: IC50 A549 Normoxia): 2.11 µM
- melting point: 91 to 93 °C
- IC50 ([4]; HCT-116, hypoxia 24 h then normoxia 72 h, read-out: IC50 HCT-116 Hypoxia): 32.9 µM
- IC50 ([4]; HCT-116, normoxia 96 h, read-out: IC50 HCT-116 Normoxia): 25.6 µM
- cell viability of HT-29 cells ([5]; 6.25-100 μM for 48 h, MTT staining): decreased in a dose-dependent manner
- IC50 ([5]; HT-29, hypoxia 24 h then normoxia 72 h, read-out: IC50 HT-29 Hypoxia): 8.9 µM
- IC50 ([5]; HT-29, normoxia 96 h, read-out: IC50 HT-29 Normoxia): 10.2 µM
- inhibition at 1 µM ([6]; Mus musculus): 43.1%
- IL-6 [6]: 656.75 ± 79.49 pg/mL
- inhibition at 1 µM ([7]; Mus musculus): 22%
- TNF-α [7]: 3508.08 ± 368.72 pg/mL
- IC50 [8]: 0.22 µM
- NO radical scavenging activity [9]: had NO radical scavenging activity
